Experimental data: publication PMC5750218, “Protein-inspired antibiotics active against vancomycin- and daptomycin-resistant bacteria” (Nature Communications, 2018)
Converted amounts (≈) assume the structure as drawn.

Key:
MRSA (Strain ATCC 43300) = test: MRSA thigh infection in vivo efficacy model (neutropenic mice); design: species or system Staphylococcus aureus; settings: single 25 mg kg^−1 SC dose
Protocol: Thighs were then removed, weighed and homogenised in a fixed volume of saline.
Untreated animals received equivalent volume of saline (Baxter). […] For each mouse, both thighs were collected aseptically by cutting the leg at the hip and knee, placed in 10 mL of cold sterile saline and the individual weight of each thigh recorded.

[1] = Critical micelle concentration assay; assay type: physicochemical; settings: 0.2 M NaCl, DPH
Protocol: CMCs were determined as previously described[46] with a higher throughput modification. Briefly, a cascade dilution of each antibiotic was performed in a low binding polypropylene V-bottom shaped 96-well plates in the presence of 0.2 M NaCl solution across 12 concentrations ranging from 1000 to 0.1 μM, except the control melittin (100 to 0.01 μM). An identical cascade dilution was performed for the neutral detergent Triton X-100 and the anionic detergent sodium dodecyl sulphate (SDS) starting from 0.1% down to 0.00001% (vol:vol for Triton X-100 and wt:vol for SDS). An aliquot of […] (DPH) in DMSO was added in each well to yield the final DPH concentration of 5 μM. The reaction mixtures were mixed for 30 s and transferred in horizontal triplicate (25 μL per well) into a black falcon 384-well plate. The 384-well plate was then sealed, wrapped up in aluminium foil and incubated for 30 min at room temperature. The fluorescence intensity was monitored in real time using a BMG Labtech PolarStar Omega multimode reader fitted with 360-10 and 430-10 excitation and emission filters respectively, at an excitation wavelength of 360 nm and an emission wavelength of 430 nm.

[2] = tested on: cell-free particulate fraction of Bacillus megaterium KM (ATCC 13632); test: Cell-free peptidoglycan inhibition assay; assay type: biochemical; settings: cell free radiolabelled synthesis assay
Protocol: The cell-free particulate fraction of Bacillus megaterium KM (ATCC®13632™) was used to catalyse the polymerisation of peptidoglycan from UPD-linked precursors in vitro following literature procedures. B. megaterium was grown in the medium containing 1% (w/v) tryptone (Difco-Bacto), 0.5% (w/v) yeast extract (Difco-Bacto), 0.25% (w/v) K2HPO4 and 0.5% (w/v) glucose with pH 7.2. Bacteria were harvested when the density had reached to 0.4 mg dry weight mL^−1 and washed in the buffer 0.05 M Tris-HCl (pH 7.8) containing 10 mM MgCl2 by centrifugation at 6000 × g for 10 min at 4 °C. All subsequent manipulations were carried out on ice. The bacteria were resuspended in the same buffer at a density of 50 mg dry weight mL^−1, and then subjected to three freeze/thaw cycles. Bacteria were then homogenised by using a glass homogeniser at 4 °C (2 × 10 min). The broken cell suspension was centrifuged at 6000 × g for 10 min at 4 °C. […] Integrated density value (IDV) of each band on silica gel was analysed using AlphaEase FC software (AlphaImager 2200). The change of peptidoglycan or Lipid II were calculated as percent from the IDV values of the control (without any antibiotic or compound).

MRSA = MRSA in 50% human serum / 50% MHB
Protocol: The compounds, along with standard antibiotics were serially diluted twofold across the wells of 96-well non-binding surface (NBS) polystyrene plates (Corning 3641). […] Standards ranged from 64 to 0.03 µg mL^−1 and compounds from 8 to 0.003 µg mL^−1 with final assay volumes of 100 µL per well. Gram-positive bacteria were cultured in Mueller Hinton broth (MHB) (Bactolaboratories, Cat. no. 211443) at 37 °C overnight. A sample of each culture was then diluted 40-fold in fresh MHB and incubated at 37 °C for 2–3 h. […] All the plates were covered and incubated at 37 °C for 24 h. MICs were the lowest concentration showing no visible growth.
The compounds, along with standard antibiotics, tested in BMD-MIC assay as above, in the presence of a mixture of 50% human serum (Sigma-Aldrich) and 50% MHB.

## CN[C@H](CC(C)C)C(=O)N[C@H]1C(=O)N[C@@H](CC(N)=O)C(=O)N[C@H]2C(=O)N[C@H]3C(=O)N[C@H](C(=O)N[C@H](C(=O)O)c4cc(O)cc(O)c4-c4cc3ccc4O)[C@H](O)c3ccc(c(Cl)c3)Oc3cc2cc(c3O[C@@H]2O[C@H](CO)[C@@H](O)[C@H](O)[C@H]2O[C@H]2C[C@](C)(N)[C@H](O)[C@H](C)O2)Oc2ccc(cc2Cl)[C@H]1O [Compound 1, Vancomycin]
MRSA (Strain ATCC 43300)
  Efficacy in thigh infection model: almost inactive

## CCCCCCCCCCCCCC(=O)N[C@@H](CCCCN)C(=O)N[C@@H](CCCCN)C(=O)N[C@@H](CCCCN)C(=O)N[C@@H](CCCCNC(=O)[C@H]1NC(=O)[C@H]2NC(=O)[C@H](NC(=O)[C@@H]3NC(=O)[C@H](CC(N)=O)NC(=O)[C@H](NC(=O)[C@@H](CC(C)C)NC)[C@H](O)c4ccc(c(Cl)c4)Oc4cc3cc(c4O[C@@H]3O[C@H](CO)[C@@H](O)[C@H](O)[C@H]3O[C@H]3C[C@](C)(N)[C@H](O)[C@H](C)O3)Oc3ccc(cc3Cl)[C@H]2O)c2ccc(O)c(c2)-c2c(O)cc(O)cc21)C(=O)O [Compound 17, nC13CO-KKK-K(Vancomycin)-OH]
[1]
  critical micelle concentration (CMC): exceed 100 µM
[2]
  Peptidoglycan formation, 14C-GlcNAc incorporation: inhibited peptidoglycan formation

## CN[C@H]1C(=O)N[C@@H]2Cc3ccc(cc3)Oc3cc4cc(c3O[C@@H]3O[C@H](C(=O)O)[C@@H](O)[C@H](O)[C@H]3NC(=O)CCCCCCCCC(C)C)Oc3ccc(cc3Cl)[C@@H](O)[C@@H]3NC(=O)[C@H](NC(=O)[C@@H]4NC(=O)[C@@H](NC2=O)c2cc(cc(O)c2Cl)Oc2cc1ccc2O)c1ccc(O)c(c1)-c1c(O[C@H]2O[C@H](CO)[C@@H](O)[C@H](O)[C@@H]2O)cc(O)cc1[C@@H](C(=O)NCCCN(C)C)NC3=O [Compound 3, Dalbavancin]
MRSA
  MIC +50% HS: 8 µg/mL (≈ 4.4 µM)
